This is an account of results in patent US11116757B2 (priority 2015, dated 2021).

In one experiment the target is DCN1-UBC12 interaction (Homo sapiens (Human), UniProt Q96GG9). In words: biochemical. Format: binding. Conditions: Table 4, commercial compounds; read-out: TR-FRET IC50. A general note: TR-FRET usually uses a lanthanide donor and a delayed reading to cut background.
Sequence of DCN1-UBC12 interaction (Q96GG9 60-248 limits assumed): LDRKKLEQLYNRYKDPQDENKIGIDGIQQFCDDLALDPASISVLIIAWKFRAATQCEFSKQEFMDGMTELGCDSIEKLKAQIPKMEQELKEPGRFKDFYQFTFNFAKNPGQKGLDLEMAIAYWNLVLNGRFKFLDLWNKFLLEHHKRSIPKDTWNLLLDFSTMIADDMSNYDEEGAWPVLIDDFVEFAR
For `Cc1ccc(NC(=O)C2CCN(C(=O)c3ccccc3C)CC2)cc1C` [C22], the concentration for half-maximal inhibition (IC50) was > 67.6 µM. The same measure, in the same setting: then `O=C(Nc1ccc(Cl)c(Cl)c1)C1CCN(C(=O)c2ccco2)CC1` [C40], with > 67.6 µM; and `COc1ccc(C(=O)N2CCC(C(=O)Nc3cc(OC)ccc3OC)CC2)cc1` [C11], with > 48.7 µM; and `CCOc1ccccc1NC(=O)C1CCN(C(=O)c2ccc(OC)cc2)CC1` [C47], with > 67.6 µM.

Turning to `CCc1ccc(NC(=O)C2CCN(C(=O)N3CC(C)Oc4ccccc43)CC2)cc1` (stereo not shown) [C52], the IC50 was > 67.6 µM. Still for that read-out and setting: the result for `O=C(Nc1ccc(C(F)(F)F)cc1)C1CCN(C(=O)c2ccccc2F)CC1` [C65] reads > 68.1 µM; that for `Cc1ccc(C(=O)N2CCC(C(=O)Nc3ccc(C)c(C)c3)CC2)cc1` [C25], > 67.6 µM; that for `COc1ccc(C(=O)N2CCC(C(=O)Nc3ccc(F)c(Cl)c3)CC2)cc1` [C16], > 67.6 µM. The same measure, in the same setting: the result for `Cc1ccccc1C(=O)N1CCC(C(=O)Nc2c(F)cccc2F)CC1` [C36] reads > 67.6 µM.

The same experiment, now with this note: Table 6, commercial compounds; read-out: TR-FRET IC50.
Consider `CC(=O)N1CCN(C(=O)c2cnn(-c3nccc(-c4cccs4)n3)c2C2CC2)CC1` [E24], for which the half-inhibitory concentration (IC50) worked out at 61.6 µM.

In the case of `CCN(CC)CCNC(=O)c1cnn(-c2nccc(-c3cccs3)n2)c1C1CC1` [E36], the IC50 was > 67.6 µM. Turning to `Cc1cnc(-n2ncc(C(=O)N3CCN(C)CC3)c2C2CC2)nc1-c1cccs1` [E55], the half-maximal inhibitory concentration (IC50) was > 67.6 µM. On the same count and under the same terms, the result for `CCN(CCN(C)C)C(=O)c1cnn(-c2ncc(C)c(-c3cccs3)n2)c1COC` [E46] reads > 67.6 µM. Still for that read-out and setting: the result for `Cc1c(C(=O)N(C)CC(C)C)cnn1-c1nccc(-c2cccs2)n1` [E6] reads 18.8 µM; that for `CCN1CCN(C(=O)c2cnn(-c3nccc(-c4cccs4)n3)c2C(C)C)CC1` [E4], 13.1 µM.

Staying with this experiment, now noted: Table 7, commercial compounds; read-out: TR-FRET IC50.
For `Cc1nn(C)c2c1C(c1ccc(C(C)(C)C)cc1)C(NC(=O)c1ccccc1)C(=O)N2` (stereo not shown) [F11], the half-maximal inhibitory concentration (IC50) was > 67.6 µM.

The experiment is the same for the next values; noted with them: read-out: TR-FRET IC50.
Consider `CCN1CCC(N(Cc2ccc3c(c2)OCO3)C(=O)Nc2cccc(Br)c2)CC1` [B4], for which the IC50 is 4.06 µM.

For the molecule `CCCC(C)N1CCC(N(Cc2ccccc2)C(=O)Nc2ccc(Cl)cc2C#N)CC1` (stereo not shown) [A141], the half-maximal inhibitory concentration (IC50) worked out at 4.22 µM. The same measure, in the same setting: the result for `COc1cc(C(=O)N2CCCC(c3nc4ccccc4s3)C2)cc(OC)c1OCC(N)=O` (stereo not shown) [D24] reads > 67.6 µM; that for `CCCCN1CCC(N(Cc2ccccc2)C(=O)Nc2cccc([N+](=O)[O-])c2)CC1` [A104], 1.85 µM; that for `CCCCCN1CCC(N(Cc2ccccc2)C(=O)Nc2cc(F)cc(C(F)(F)F)c2)CC1` [A124], 1.59 µM. Still for that read-out and setting: the result for `CCc1ccc(NC(=O)NC2CCN(C(C)C)CC2)cc1` [B62] reads > 67.6 µM; that for `CC(C1CCCC1)N1CCC(N(Cc2ccccc2)C(=O)Nc2cc(F)cc(C(F)(F)F)c2)CC1` (stereo not shown) [A279], > 7.78 µM.

Take `CCCCN1CCC(N(Cc2ccccc2)C(=O)Nc2cccnc2)CC1` [A280]: the IC50 was > 70.1 µM.

For `O=C(Nc1cccc(C(F)(F)F)c1)NC1CCN(Cc2ccccc2Cl)CC1` [A292, 1-(1-(2-Chlorobenzyl)Piperidin-4-yl)-3-(3-(Trifluoromethyl)Phenyl)Urea], the half-inhibitory concentration (IC50) was > 77.3 µM. Take `CCOc1cc(C(=O)N2CCCC(c3nc4ccccc4s3)C2)cc(Br)c1OC` (stereo not shown) [D28]: the concentration for half-maximal inhibition (IC50) was > 67.6 µM.

Turning to `CCCC(C)N1CCC(N(Cc2ccccc2)C(=O)Nc2cnc(Cl)nc2)CC1` (stereo not shown) [A241], the IC50 was > 52.4 µM. The same measure, in the same setting: the result for `CCCC(C)N1CCC(N(Cc2ccccc2)C(=O)Nc2ccc(OC)cc2OC)CC1` (stereo not shown) [A197] reads > 111 µM; that for `CCCC(C)N1CCC(N(Cc2ccccc2)C(=O)Nc2ccc(OC)cc2C)CC1` (stereo not shown) [A275], > 68.6 µM.

Consider `CCCC(C)N1CCC(N(Cc2ccccc2)C(=O)Nc2ccc(Cl)cc2C(=O)OC)CC1` (stereo not shown) [A266], for which the IC50 was > 66.2 µM. On the same count and under the same terms, the result for “1-(1-(2-Methylbenzyl)Piperidin-4-yl)-3-(3-(Trifluoromethyl)Phenyl)Urea [A137]” reads 3.8 µM; that for `CCCC(C)N1CCC(N(Cc2ccccc2)C(=O)Nc2cccc(C)c2C)CC1` (stereo not shown) [A271], > 67.5 µM; that for `CCCC(C)N1CCC(N(Cc2ccccc2)C(=O)Nc2ccc(Cl)c(C(F)(F)F)c2)CC1` (stereo not shown) [A64], 0.414 µM. Regarding `FC(F)(F)c1cccc(CNC2CCN(Cc3ccccc3)CC2)c1` [B32], the IC50 was > 55.3 µM. Still for that read-out and setting: then `O=C(CN1CCN(c2cccc(Cl)c2)CC1)Nc1cccc(C(F)(F)F)c1` [B31], with > 54.3 µM; and `CCCC(C)N1CCC(N(Cc2ccccc2)C(=O)Nc2cccc(Cc3ccccc3)c2)CC1` (stereo not shown) [A23], with 0.14 µM. On the same count and under the same terms, the result for `CCOc1ccccc1NC(=O)N(Cc1ccc(C)o1)C1CCN(Cc2ccccc2)CC1` [B92] reads > 67.6 µM; that for `COc1cc(CN2CCC(NC(=O)Nc3cccc(C)c3)CC2)cc(OC)c1OC` [B12], 29.3 µM. Same read-out and setting: the result for `O=C(Nc1cccc(C(F)(F)F)c1)N[C@H]1CCN(Cc2ccccc2)C[C@@H]1OC(=O)Nc1cccc(C(F)(F)F)c1` [A249] reads > 59.6 µM; that for `CCCC(C)N1CCC(N(Cc2ccccc2)C(=O)Nc2cc(C(F)(F)F)ccc2Cl)CC1` (stereo not shown) [A101], 1.6 µM. `CCCC(C)N1CCC(N(Cc2ccccc2)C(=O)Nc2ccc(F)c(Cl)c2)CC1` (stereo not shown) [A53]: the IC50 was 0.287 µM.

Consider `CCCC(C)N1CCC(N(Cc2ccccc2)C(=O)Nc2cccc(F)c2Cl)CC1` (stereo not shown) [A168], for which the half-inhibitory concentration (IC50) came out at 10.6 µM. Still for that read-out and setting: the result for `O=C(Nc1cccnc1Cl)NC1CCN(C(=O)c2ccccc2F)CC1` [B30] reads > 53.3 µM; that for `CCCC(C)N1CCC(N(Cc2ccccc2)C(=O)Nc2c(C)cccc2C)CC1` (stereo not shown) [A259], > 62.4 µM. Still for that read-out and setting: then `CCOC(=O)Cc1ccc(NC(=O)N(Cc2ccco2)C2CCN(C(C)=O)CC2)cc1` [B75], with > 67.6 µM; and `CCCC(C)N1CCC(N(Cc2ccccc2)C(=O)Nc2ccc(OC)c(F)c2)CC1` (stereo not shown) [A109], with 2.2 µM. Still for that read-out and setting: then `CCCN1CCC(N(Cc2ccco2)C(=O)Nc2cccc(C(F)(F)F)c2)CC1` [A77, 1-(Furan-2-Ylmethyl)-1-(1-Propylpiperidin-4-yl)-3-(3-(Trifluoromethyl)Phenyl)Urea], with 0.798 µM; and `Cn1c(CN2CCC(N(Cc3ccccc3)C(=O)Nc3cc(F)cc(C(F)(F)F)c3)CC2)nc2ccccc21` [A203], with > 20.2 µM; and `COC(=O)[C@@H]1C[C@@H](NC(=O)Nc2ccccc2)CN1Cc1ccccc1C(F)(F)F` [B99], with > 68 µM. Consider `CCCC(C)N1CCC(N(Cc2ccccc2)C(=O)Nc2ccc(CN3CCCC3)cc2)CC1` (stereo not shown) [A247], for which the half-maximal inhibitory concentration (IC50) was > 58.5 µM. On the same count and under the same terms, then `COc1ccc(C(=O)NCC(=O)N2CCC(c3nc4ccccc4s3)CC2)cc1OC` [D26], with > 67.6 µM.

Regarding `CCCC(C)N1CCC(N(Cc2ccccc2)C(=O)Nc2ccc(O)c(Cl)c2)CC1` (stereo not shown) [A300], the IC50 is > 85.8 µM. The same measure, in the same setting: the result for `CCCC(C)N1CCC(N(Cc2ccccc2)C(=O)Nc2cccc3cnccc23)CC1` (stereo not shown) [A244] reads > 53.6 µM; that for `C#CCCCN1CCC(N(Cc2ccccc2NC(=O)CCl)C(=O)Nc2ccc(Cl)c(Cl)c2)CC1` [A252], > 6.46 µM; that for `COc1ccc(CN(C(=O)Nc2ccccc2C)C2CCN(C(C)=O)CC2)cc1` [B84], > 67.6 µM. As for `CCN1CCC(N(Cc2ccco2)C(=O)Nc2cc(Cl)ccc2C)CC1` [B78], the IC50 was > 67.6 µM. On the same count and under the same terms, the result for `O=C(c1ccc(F)cc1Cl)N1CCC(c2nc3ccccc3s2)CC1` [D5] reads 18.2 µM. The same measure, in the same setting: the result for `CCCC(C)N1CCC(N(Cc2ccccc2)C(=O)Nc2cccc(C(C)(C)C)c2)CC1` (stereo not shown) [A140] reads 4.2 µM. Consider `CCCC(C)N1CCC(N(Cc2ccccc2)C(=O)Nc2ccccc2C(N)=O)CC1` (stereo not shown) [A257], for which the IC50 was > 61.8 µM. On the same count and under the same terms, the result for `CCCC(C)N1CCC(N(Cc2ccccc2)C(=O)Nc2cc(OC)cc(OC)c2)CC1` (stereo not shown) [A273] reads > 68 µM; that for `O=C(c1ccc(F)cc1)N1CCC(c2nc3ccccc3s2)CC1` [D15], > 46.2 µM. Still for that read-out and setting: then `O=C(Nc1cccc(SC(F)(F)F)c1)NC1CCN(Cc2ccccc2)CC1` [B8], with 16.6 µM; and `CCCN1CCC(N(CC2CCCCC2)C(=O)Nc2cccc(C(F)(F)F)c2)CC1` [A92, 1-(Cyclohexylmethyl)-1-(1-Propylpiperidin-4-yl)-3-(3-(Trifluoromethyl)Phenyl)Urea], with 1.23 µM. Still for that read-out and setting: then `CCCC(C)N1CCC(N(Cc2ccccc2)C(=O)Nc2cccc(OC)c2)CC1` (stereo not shown) [A131], with 3.15 µM; and `COc1cc(CN2CCC(NC(=O)Nc3ccccc3)CC2)cc(OC)c1OC` [B45], with > 65.5 µM. Regarding `CCCCN1C(C)CC(N(Cc2ccccc2)C(=O)Nc2cccc(C(F)(F)F)c2)CC1C` (stereo not shown) [A71], the 50% inhibitory concentration (IC50) came to 0.589 µM. As for `CCCC(C)N1CCC(N(Cc2ccccc2)C(=O)Nc2ccc(C(F)(F)F)cc2[NH2+][O-])CC1` (stereo not shown) [A174], the IC50 was found to be 13.2 µM. On the same count and under the same terms, then `COc1ccc(CN(C(=O)Nc2cc(C)ccc2C)C2CCN(C(C)=O)CC2)cc1` [B82], with > 67.6 µM; and `O=C(c1ccc(Br)cc1)N1CCC(c2nc3ccccc3s2)CC1` [D9], with 21.8 µM; and `CCCC(C)N1CCC(N(Cc2ccc3c(c2)OCO3)C(=O)Nc2ccc(Cl)c(Cl)c2)CC1` (stereo not shown) [A9], with 0.0788 µM.

With `O=C(Nc1ccc(F)cc1)NC1CCN(Cc2ccccc2)CC1` [B43], the half-maximal inhibitory concentration (IC50) was > 64.5 µM. Same read-out and setting: then `O=C(Nc1cc(F)cc(C(F)(F)F)c1)N(Cc1ccccc1)C1CCN(Cc2ccccc2OCc2ccccc2)CC1` [A214], with > 22.9 µM; and `CCCC(C)N1CCC(N(Cc2ccccc2)C(=O)Nc2ccc(OC)cc2)CC1` (stereo not shown) [A158], with 7.67 µM; and `CCCC(C)N1CCC(N(Cc2ccccc2)C(=O)Nc2ccc3ncccc3c2)CC1` (stereo not shown) [A207], with > 21 µM. Still for that read-out and setting: then `CCCC(C)N1CCC(N(Cc2cccc(CNC(=O)CCl)c2)C(=O)Nc2cccc(C(F)(F)F)c2)CC1` (stereo not shown) [A256], with > 60.4 µM; and `CCCC(C)N1CCC(N(Cc2cccnc2)C(=O)Nc2cc(F)cc(C(F)(F)F)c2)CC1` (stereo not shown) [A39], with 0.213 µM; and `C=CS(=O)(=O)NCc1ccccc1CN(C(=O)Nc1cccc(C(F)(F)F)c1)C1CCN(C(C)CCC)CC1` (stereo not shown) [A2], with 0.0068 µM. Still for that read-out and setting: the result for `C#Cc1ccccc1CN1CCC(N(Cc2ccccc2)C(=O)Nc2cc(F)cc(C(F)(F)F)c2)CC1` [A123] reads 1.13 µM. `CC(=O)O[C@H]1CN(Cc2ccccc2)CC[C@@H]1NC(=O)Nc1cccc(C(F)(F)F)c1` [A160]: the IC50 was 7.89 µM.

The IC50 is the concentration at which inhibition is half-maximal.
